The values that follow come from US20110105436A1, “HETEROARYL COMPOUNDS, COMPOSITIONS, AND METHODS OF USE IN CANCER TREATMENT” (AUCKLAND UNISERVICES LIMITED, priority 2008, published 2011).

By IC50 is commonly meant the concentration needed to halve the response being measured. A lower IC50 goes with higher potency.

Bounds are passed on as bounds.

In one assay the test system is RCC4/VHL cells. The assay is described as follows: XTT assay, RCC4/VHL versus RCC4 cells (selectivity ratio). As to conditions: Table 1; selectivity ratio, IC50 in RCC4/VHL cells/IC50 in RCC4 cells. The class given is cell-based. How it is done:
(§1) Cell Viability and XTT assays. For cell viability, 100,000 cells were plated in a 12-well plate. The following day, 1.25 μM STF-62247 was added in the presence or absence of 1 mM 3-MA for 24 hours at 37° C. Cells were trypsinized and counted by trypan blue exclusion. For XTT assays, 5000 RCC4 with and without VHL cells or 2,500 SN12C with and without VHL shRNA cells were plated in 96-well plates. The following day, vehicle (DMSO), STF-62247 or each of 19 analogs were added to media by serial dilution. Four days later, the media was aspirated and XTT solution containing 0.3 mg/ml of XTT (Sigma Chemical Co) in Phenol Red-free media, 20% FCS and 2.65 mg/ml N-methyl dibenzopyrazine methyl sulfate (PMS) was added to the cells and incubated at 37° C. for 1-2 hours. Metabolism of XTT was quantified by measuring the absorbance at 450 nm on a plate reader.
A. RCC4 and RCC4/VHL were treated with 1.25 μM of each 19 analogs for 20 hours and the presence of vacuoles was examined under light microscopy. B. Western blot for LC3 after treatment with each compound. Tubulin was used as loading control. Ratio is the relative from the IC50 in RCC4/VHL cells/IC50 in RCC4 cells. C. Acidic vesicle organelles (AVO) measured by FACS analysis in cells treated with 1.25 μM of STF-62247 or with compounds 21, 15, 25, 47, and 53 and stained with acridine orange.
(Formazan colour is commonly taken as a measure of viable cells.)

In another assay the test system is RCC4 cells. Description: XTT assay in VHL-deficient RCC4 cells. The class given is cell-based. As to conditions: Homo sapiens, 96 h; Table 1; XTT assay, VHL-deficient RCC4 cells, four days. How it is done: as §1

Take `c1ccc(Nc2nc(-c3ccncc3)cs2)cc1` [Compound 3, N-Phenyl-4-(4-pyridinyl)-1,3-thiazol-2-amine]: the Ratio with RCC4/VHL cells is more than 10. In addition, the IC50 in the assay on RCC4 cells worked out at 7 µM.

Take `CCc1cccc(Nc2nc(-c3ccncc3)cs2)c1` [Compound 7, N-(3-Ethylphenyl)-4-(4-pyridinyl)-1,3-thiazol-2-amine]: the Ratio in the assay with RCC4/VHL cells amounted to 9.6. In the assay on RCC4 cells, this compound yielded an IC50 of 2.5 µM. The like results for `CC(C)c1cccc(Nc2nc(-c3ccncc3)cs2)c1` [Compound 9, N-(3-Isopropylphenyl)-4-(4-pyridinyl)-1,3-thiazol-2-amine] were, in that order, 1.4 and 17 µM. As for `Clc1cccc(Nc2nc(-c3ccncc3)cs2)c1` [Compound 17, N-(3-Chlorophenyl)-4-(4-pyridinyl)-1,3-thiazol-2-amine], in the assay on RCC4/VHL cells, the Ratio is 5. In the assay with RCC4 cells, this compound displayed a concentration for half-maximal inhibition (IC50) of 3 µM. The matching figures for `OCCc1ccc(Nc2nc(-c3ccncc3)cs2)cc1` [Compound 23, 2-(4-{[4-(4-Pyridinyl)-1,3-thiazol-2-yl]amino}phenyl)ethanol]: 16 and 5 µM. `COc1ccc(Nc2nc(-c3ccncc3)cs2)cc1` [Compound 27, N-(4-Methoxyphenyl)-4-(4-pyridinyl)-1,3-thiazol-2-amine]: in the assay with RCC4/VHL cells, the Ratio came to 3.6. In the assay on RCC4 cells, this compound registered an IC50 of 14 µM.

As for `CN(C)CCOc1ccc(Nc2nc(-c3ccncc3)cs2)cc1` [Compound 29, N-{4-[2-(Dimethylamino)ethoxy]phenyl}-4-(4-pyridinyl)-1,3-thiazol-2-amine], the Ratio in the assay on RCC4/VHL cells is 1.3. In the assay with RCC4 cells, the concentration for half-maximal inhibition (IC50) is 60 µM.

As to `Clc1ccc(Nc2nc(-c3ccncc3)cs2)cc1` [Compound 31, N-(4-Chlorophenyl)-4-(4-pyridinyl)-1,3-thiazol-2-amine], the Ratio with RCC4/VHL cells is on record as more than 2. In the assay with RCC4 cells, this compound displayed an IC50 of 38 µM. In the case of `Fc1ccc(Nc2nc(-c3ccncc3)cs2)cc1` [Compound 33, N-(4-Fluorophenyl)-4-(4-pyridinyl)-1,3-thiazol-2-amine], the Ratio in the assay on RCC4/VHL cells was more than 7. In the assay on RCC4 cells, this compound returned an IC50 of 6 µM. `CN(C)CCc1ccc(Nc2nc(-c3ccncc3)cs2)cc1` [Compound 36, N-{4-[2-(Dimethylamino)ethyl]phenyl}-4-(4-pyridinyl)-1,3-thiazol-2-amine]: the Ratio in the assay on RCC4/VHL cells is recorded as 1.2. Also, the IC50 in the assay with RCC4 cells amounted to 50 µM. As to `O=P(O)(O)Oc1cccc(Nc2nc(-c3ccncc3)cs2)c1` [Compound 39, 3-{[4-(4-Pyridinyl)-1,3-thiazol-2-yl]amino}phenyl Dihydrogen Phosphate], the Ratio with RCC4/VHL cells was 1.1. In the assay with RCC4 cells, this compound gave an IC50 of 29 µM. With `O=P(O)(O)Oc1ccc(Nc2nc(-c3ccncc3)cs2)cc1` [Compound 41, 4-{[4-(4-Pyridinyl)-1,3-thiazol-2-yl]amino}phenyl Dihydrogen Phosphate], the Ratio with RCC4/VHL cells was determined as 6.3. The compound also yielded an IC50 in the assay on RCC4 cells of 3 µM. The matching figures for `Cc1ccc(Nc2nc(-c3ccncc3)cs2)cc1C` [Compound 43, N-(3,4-Dimethylphenyl)-4-(4-pyridinyl)-1,3-thiazol-2-amine]: 6.4 and 6.5 µM. For `Cc1cc(C)cc(Nc2nc(-c3ccncc3)cs2)c1` [Compound 45, N-(3,5-Dimethylphenyl)-4-(4-pyridinyl)-1,3-thiazol-2-amine], in the assay with RCC4/VHL cells, the Ratio is more than 9. In addition, the IC50 in the assay with RCC4 cells was determined as 4.5 µM.

As for `c1cc(-c2csc(Nc3ccc4c(c3)CCC4)n2)ccn1` [Compound 47, N-(2,3-Dihydro-1H-inden-5-yl)-4-(4-pyridinyl)-1,3-thiazol-2-amine], the Ratio in the assay on RCC4/VHL cells is given as 10. The IC50 in the assay with RCC4 cells came to 2 µM.

Regarding `Cc1ccc(Nc2nc(-c3ccncc3)cs2)cc1O` [Compound 49, 2-Methyl-5-{[4-(4-pyridinyl)-1,3-thiazol-2-yl]amino}phenol], the Ratio with RCC4/VHL cells amounted to 4.6. This compound returned a half-inhibitory concentration (IC50) with RCC4 cells of 12 µM. Turning to `COc1ccc(Nc2nc(-c3ccncc3)cs2)cc1OC` [Compound 55, N-(3,4-Dimethoxyphenyl)-4-(4-pyridinyl)-1,3-thiazol-2-amine], the Ratio in the assay on RCC4/VHL cells came out at 1.9. The same compound returned an IC50 in the assay on RCC4 cells of 24 µM. The like results for `Clc1ccc(Nc2nc(-c3ccncc3)cs2)cc1Cl` [Compound 61, N-(3,4-Dichlorophenyl)-4-(4-pyridinyl)-1,3-thiazol-2-amine] were, in that order, more than 3 and 13.5 µM. `Cc1cccc(Nc2nc(-c3cccnc3)cs2)c1` [Compound 65, N-(3-Methylphenyl)-4-(3-pyridinyl)-1,3-thiazol-2-amine] yielded a 50% inhibitory concentration (IC50) in the assay with RCC4 cells of more than 40 µM. For the compound `Oc1ccc(Nc2nc(-c3cccnc3)cs2)cc1` [Compound 66, 4-{[4-(3-Pyridinyl)-1,3-thiazol-2-yl]amino}phenol], in the assay with RCC4 cells, the IC50 was more than 40 µM. In the case of `Cc1cccc(Nc2nc(-c3ccccn3)cs2)c1` [Compound 68, N-(3-Methylphenyl)-4-(2-pyridinyl)-1,3-thiazol-2-amine], in the assay on RCC4/VHL cells, the Ratio is 0.9. The compound further displayed a half-maximal inhibitory concentration (IC50) in the assay with RCC4 cells of 37 µM. For the compound `Oc1ccc(Nc2nc(-c3ccccn3)cs2)cc1` [Compound 69, 4-{[4-(2-Pyridinyl)-1,3-thiazol-2-yl]amino}phenol], the Ratio in the assay on RCC4/VHL cells is 0.7. Moreover, the IC50 in the assay with RCC4 cells was determined as 36 µM. Regarding `Cc1cccc(Nc2nc(-c3ccncc3)c(C)s2)c1` [Compound 71, 5-Methyl-N-(3-methylphenyl)-4-(4-pyridinyl)-1,3-thiazol-2-amine], the Ratio in the assay on RCC4/VHL cells is more than 4. The IC50 with RCC4 cells stood at 10 µM. The matching figures for `Cc1sc(Nc2ccc3c(c2)CCC3)nc1-c1ccncc1` [Compound 72, N-(2,3-Dihydro-1H-inden-5-yl)-5-methyl-4-(4-pyridinyl)-1,3-thiazol-2-amine]: 1.5 and 12 µM.

Regarding `OCc1sc(Nc2ccccc2)nc1-c1ccncc1` [Compound 73, [2-(Phenylamino)-4-(4-pyridinyl)-1,3-thiazol-5-yl]methanol], the Ratio with RCC4/VHL cells is on record as more than 1.3. Further, in the assay with RCC4 cells, the midpoint of inhibition, the IC50, lay at 30 µM. Regarding `Cc1cccc(Nc2nc(-c3ccncc3)c(CO)s2)c1` [Compound 74, [2-[(3-Methylphenyl)amino]-4-(4-pyridinyl)-1,3-thiazol-5-yl]methanol], the Ratio in the assay with RCC4/VHL cells came out at 2.4. This compound returned an IC50 in the assay on RCC4 cells of 7 µM. As to `Cc1ccc(Nc2nc(-c3ccncc3)c(CO)s2)cc1` [Compound 75, [2-[(4-Methylphenyl)amino]-4-(4-pyridinyl)-1,3-thiazol-5-yl]methanol], in the assay with RCC4/VHL cells, the Ratio came out at 1.2. In the assay with RCC4 cells, the concentration for half-maximal inhibition (IC50) came out at 14 µM. For `OCc1sc(Nc2ccc3c(c2)CCC3)nc1-c1ccncc1` [Compound 76, [2-(2,3-Dihydro-1H-inden-5-ylamino)-4-(4-pyridinyl)-1,3-thiazol-5-yl]methanol], the Ratio in the assay with RCC4/VHL cells is listed as 1.4. Also, it took 6.8 µM to reach half-maximal inhibition in the assay on RCC4 cells (IC50). Turning to `COC(=O)/C=C/c1sc(Nc2cccc(C)c2)nc1-c1ccncc1` [Compound 78, Methyl (2E)-3-[2-[(3-Methylphenyl)amino]-4-(4-pyridinyl)-1,3-thiazol-5-yl]-2-propenoate], the Ratio with RCC4/VHL cells is 2.8. In the assay on RCC4 cells, this compound registered an IC50 of 2.5 µM. The matching figures for `Cc1cccc(Nc2nc(-c3ccncc3)c(CCCO)s2)c1` [Compound 81, 3-[2-[(3-Methylphenyl)amino]-4-(4-pyridinyl)-1,3-thiazol-5-yl]-1-propanol]: 3.7 and 3.6 µM. On to `Cc1cccc(Nc2nc(-c3ccncc3)c(CCCN3CCOCC3)s2)c1` [Compound 82, N-(3-Methylphenyl)-5-[3-(4-morpholinyl)propyl]-4-(4-pyridinyl)-1,3-thiazol-2-amine], for which the Ratio with RCC4/VHL cells stood at 1.6. Also, the IC50 in the assay on RCC4 cells worked out at 5.8 µM.

As to `Cc1cccc(Nc2nc(-c3ccncc3)c(CN(C)C)s2)c1` [Compound 83, 5-[(Dimethylamino)methyl]-N-(3-methylphenyl)-4-(4-pyridinyl)-1,3-thiazol-2-amine], in the assay with RCC4/VHL cells, the Ratio was found to be 2.3. Further, inhibition in the assay on RCC4 cells was half-maximal at 16 µM (IC50). As to `CCN(CC)Cc1sc(Nc2cccc(C)c2)nc1-c1ccncc1` [Compound 84, 5-[(Diethylamino)methyl]-N-(3-methylphenyl)-4-(4-pyridinyl)-1,3-thiazol-2-amine], the Ratio with RCC4/VHL cells amounted to 1.4. In addition, in the assay on RCC4 cells, the IC50 turned out to be 13 µM. The matching figures for `Cc1cccc(Nc2nc(-c3ccncc3)c(CN3CCCCC3)s2)c1` [Compound 85, N-(3-Methylphenyl)-5-(1-piperidinylmethyl)-4-(4-pyridinyl)-1,3-thiazol-2-amine]: 1.9 and 13 µM. On to `Cc1cccc(Nc2nc(-c3ccncc3)c(CN3CCOCC3)s2)c1` [Compound 86, N-(3-Methylphenyl)-5-(4-morpholinylmethyl)-4-(4-pyridinyl)-1,3-thiazol-2-amine], for which the Ratio in the assay with RCC4/VHL cells worked out at 4.8. Besides, the midpoint of inhibition in the assay on RCC4 cells, the IC50, lay at 2.5 µM. Turning to `FC(F)(F)c1ccc(Nc2nc(-c3ccncc3)cs2)cc1` [Compound 133, 4-(4-Pyridinyl)-N-[4-(trifluoromethyl)phenyl]-1,3-thiazol-2-amine], the concentration for half-maximal inhibition (IC50) in the assay on RCC4 cells was more than 40 µM.
